Results reported in patent US20120184536A1, “COMPOSITIONS COMPRISING SPECIFIC UGT INHIBITORS AND METHODS OF USE THEREOF” (The Board of Trustees of the University of Arkansas, priority 2009, published 2012).
Like-named read-outs stand apart in the source and are kept apart here.

Key:
[1] = biological target: T1, UGT1A10 (Homo sapiens, UniProt Q9HAW8); assay: Ki assays / kinetics and inhibition type, UGT1A10 (Example 1); conditions: read-out: Km (Substrate), Km of the aglycone substrate
T1 sequence (Q9HAW8 26-530): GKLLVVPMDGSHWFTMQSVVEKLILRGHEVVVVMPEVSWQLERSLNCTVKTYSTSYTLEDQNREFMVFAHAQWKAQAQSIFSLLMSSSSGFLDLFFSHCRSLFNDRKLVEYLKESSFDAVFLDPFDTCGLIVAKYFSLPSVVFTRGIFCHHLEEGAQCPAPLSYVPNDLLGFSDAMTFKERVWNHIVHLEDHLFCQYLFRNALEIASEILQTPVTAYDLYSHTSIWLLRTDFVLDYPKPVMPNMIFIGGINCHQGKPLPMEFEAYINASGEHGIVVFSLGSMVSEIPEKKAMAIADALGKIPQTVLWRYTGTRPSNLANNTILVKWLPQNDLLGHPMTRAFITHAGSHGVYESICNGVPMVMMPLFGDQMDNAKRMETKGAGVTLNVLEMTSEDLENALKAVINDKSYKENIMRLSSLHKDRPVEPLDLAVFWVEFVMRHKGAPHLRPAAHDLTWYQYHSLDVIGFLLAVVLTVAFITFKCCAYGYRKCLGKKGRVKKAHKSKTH
Experimental: (§5) Recombinant UGT Isoform Incubations—Recombinant human UGT2B7 was produced in HEK239 cells as previously described (6). UGT1A10 was produced as a His-tagged protein in baculovirus-infected Sf9 insect cells as previously described (7, 8). […] For inhibition assays, recombinant UGT membrane protein was incubated in reaction buffer with substrate, inhibitor, and co-substrate as previously described (6, 9).
(§6) Ki assays—UGT2B7 or 1A10 were incubated with a range of at least four different concentrations of inhibitor using varying concentrations of substrate (Ki(substrate)) with a fixed saturating concentration of cosubstrate or with varying concentrations of co-substrate (Ki(UDP-GlcUA)) and a fixed saturating concentration of substrate (FIG. 4).
(§7) The results of these experiments were analyzed and apparent kinetic and inhibition parameters were determined using Prism 4 software (GraphPad, San Diego, Calif.) and DynaFit (BioKin, Watertown, Mass.). TLC and HPLC Analysis—For inhibition assays using all substrates other than 7-OH-warfarin, aliquots (60 μl) of each incubation were analyzed using thin layer chromatography (TLC) as previously described (3). For inhibition assays using 7-OH-warfarin as a substrate, samples were analyzed using HPLC as described previously (10). Primary standards for the 7-OH-warfarin glucuronide were not available; therefore, product concentrations were estimated using the external standard response for the 7-OH-warfarin substrate.

[2] = biological target: T1, UGT1A10; assay: Ki assays / kinetics and inhibition type, UGT1A10 (Example 2)
Experimental: Recombinant UGT Isoform Incubations—Recombinant human UGT1A10 and it mutants were produced in baculovirus-infected insect cells as previously described (6, 7). Synthesis of inhibitors was described previously (2). For inhibition assays, UGT recombinant membrane protein (5 μg) was incubated in reaction buffer ([…] Tris-HCl (pH 7.4)/5 mM MgCl2/5 mM saccharolactone) and 2% DMSO with substrate, inhibitor and co-substrate, UDP-GlcUA, in a total volume of 30 μl. Substrates were added in DMSO, and controls were run with each assay. No additional detergents or other activators were used in the incubations. Reactions were started by the addition of co-substrate and incubated at 37° C. (90 min for 8-hydroxywarfarin; 30 min for 4-MU; 30 min for E2). […] Reactions were stopped by addition of 40 μl of ethanol, and all incubations were performed in duplicate.
TLC Analysis—For inhibition assays using 4-MU, E2, and 8-OH warfarin as substrates, aliquots (60 μl) of each sample were analyzed using thin layer chromatography (TLC) as described previously (3).
Each sample was centrifuged at 14,000 rpm for 8 min to spin down the protein, and 60 μl of the supernatant was analyzed by HPLC as described previously (8).

[3] = biological target: T2, UGT2B7 (Homo sapiens, UniProt P16662)
T2 sequence (P16662 24-529): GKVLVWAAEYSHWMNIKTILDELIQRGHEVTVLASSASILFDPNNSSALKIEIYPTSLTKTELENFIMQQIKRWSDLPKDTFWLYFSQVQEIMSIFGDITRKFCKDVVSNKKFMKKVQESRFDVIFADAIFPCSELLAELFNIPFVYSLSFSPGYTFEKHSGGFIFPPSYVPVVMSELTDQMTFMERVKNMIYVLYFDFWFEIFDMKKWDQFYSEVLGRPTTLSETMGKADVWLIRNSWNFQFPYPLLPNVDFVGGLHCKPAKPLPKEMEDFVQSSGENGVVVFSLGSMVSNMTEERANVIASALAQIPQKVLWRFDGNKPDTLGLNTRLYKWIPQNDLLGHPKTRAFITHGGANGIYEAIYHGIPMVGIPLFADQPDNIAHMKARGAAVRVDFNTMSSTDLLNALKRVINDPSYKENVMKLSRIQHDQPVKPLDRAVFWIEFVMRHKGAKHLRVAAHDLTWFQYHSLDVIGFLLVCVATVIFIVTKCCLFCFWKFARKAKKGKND
Experimental: (§8) Recombinant UGT Isoform Incubations—Recombinant human UGT2B7 was produced in HEK239 cells as previously described (6). […] For inhibition assays, recombinant UGT membrane protein was incubated in reaction buffer with substrate, inhibitor, and co-substrate as previously described (6, 9).
(§9) IC50 assays—UGT2B7 or 1A10 were incubated with fixed concentrations of each substrate and co-substrate and increasing concentrations of inhibitor.
as §7

[4] = biological target: T2, UGT2B7; assay: Screening assay, linoleic acid glucuronidation by UGT2B7; format: biochemical; set-up: made in house; host or cells: HEK239 cells (so in the source); conditions: 250 μM linoleic acid; 0, 50 or 200 μM inhibitor; FIG. 2
Experimental: (§1) FIG. 2 depicts the effect of PP inhibitors on the glucuronidation by UGT1A6, 1A8, 1A10, and 2B7. Each enzyme was incubated with 250 μM of 4-MU or linoleic acid and 0 μM (black), 50 μM (grey), or 200 μM (white) of each inhibitor. Activities are normalized to percent maximal activity.
(§2) Synthesis of inhibitors was described previously (2).

[5] = biological target: T3, UGT1A8 (Homo sapiens, UniProt Q9HAW9); assay: Screening assay, 4-MU glucuronidation by UGT1A8; format: biochemical; conditions: 250 μM 4-MU; 0, 50 or 200 μM inhibitor; FIG. 2 / FIG. 10
T3 sequence (Q9HAW9 26-530): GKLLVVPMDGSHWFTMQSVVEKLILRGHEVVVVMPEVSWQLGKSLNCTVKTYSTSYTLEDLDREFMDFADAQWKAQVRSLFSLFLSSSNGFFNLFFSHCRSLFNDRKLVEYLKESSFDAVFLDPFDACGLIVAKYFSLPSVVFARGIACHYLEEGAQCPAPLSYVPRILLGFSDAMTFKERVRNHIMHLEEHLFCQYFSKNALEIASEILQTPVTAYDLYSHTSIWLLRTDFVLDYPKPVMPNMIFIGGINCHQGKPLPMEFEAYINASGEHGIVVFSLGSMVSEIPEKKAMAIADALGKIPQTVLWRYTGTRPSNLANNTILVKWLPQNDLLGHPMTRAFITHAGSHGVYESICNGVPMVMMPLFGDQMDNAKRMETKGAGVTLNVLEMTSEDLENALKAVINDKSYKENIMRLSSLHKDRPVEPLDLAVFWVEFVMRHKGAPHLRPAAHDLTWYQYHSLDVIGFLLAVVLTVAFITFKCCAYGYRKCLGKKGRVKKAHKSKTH
Experimental: as §1
(§3) FIG. 10 depicts the effect of PP inhibitors on the glucuronidation of 4-MU by UGT1A6, 1A8, and 1A10. Each enzyme was incubated with 250 μM 4-MU and 0, 50, or 200 μM concentrations of each inhibitor. Activities are normalized to percent maximal activity.
as §2
(§4) Recombinant UGT Isoform Incubations—Recombinant human UGT1A10 and it mutants were produced in baculovirus-infected insect cells as previously described (6, 7). Synthesis of inhibitors was described previously (2). For inhibition assays, UGT recombinant membrane protein (5 μg) was incubated in reaction buffer ([…] Tris-HCl (pH 7.4)/5 mM MgCl2/5 mM saccharolactone) and 2% DMSO with substrate, inhibitor and co-substrate, UDP-GlcUA, in a total volume of 30 μl. Substrates were added in DMSO, and controls were run with each assay. No additional detergents or other activators were used in the incubations. Reactions were started by the addition of co-substrate and incubated at 37° C. (90 min for 8-hydroxywarfarin; 30 min for 4-MU; 30 min for E2). […]

[6] = biological target: T4, UGT1A6 (Homo sapiens, UniProt P19224); assay: Screening assay, 4-MU glucuronidation by UGT1A6; format: biochemical; conditions: 250 μM 4-MU; 0, 50 or 200 μM inhibitor; FIG. 2 / FIG. 10
T4 sequence (P19224 27-532): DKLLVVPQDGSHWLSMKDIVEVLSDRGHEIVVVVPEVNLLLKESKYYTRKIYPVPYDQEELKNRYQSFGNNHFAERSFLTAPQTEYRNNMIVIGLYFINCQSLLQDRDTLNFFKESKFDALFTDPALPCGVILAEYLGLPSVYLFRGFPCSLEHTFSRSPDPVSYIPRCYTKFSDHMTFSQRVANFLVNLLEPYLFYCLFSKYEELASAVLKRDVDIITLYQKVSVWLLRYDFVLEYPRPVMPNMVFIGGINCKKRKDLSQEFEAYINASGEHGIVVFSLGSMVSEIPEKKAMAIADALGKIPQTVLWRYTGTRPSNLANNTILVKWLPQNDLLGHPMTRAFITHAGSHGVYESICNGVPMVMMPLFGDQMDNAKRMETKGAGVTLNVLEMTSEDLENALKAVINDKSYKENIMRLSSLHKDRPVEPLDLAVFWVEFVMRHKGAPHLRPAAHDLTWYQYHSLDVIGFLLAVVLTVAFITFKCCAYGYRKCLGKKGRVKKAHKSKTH
Experimental: as §1, §3, §2, §4

[7] = biological target: T1, UGT1A10; assay: Screening assay, 4-MU glucuronidation by UGT1A10; format: biochemical; set-up: His; made in house; host or cells: baculovirus-infected Sf9 insect cells; conditions: 250 μM 4-MU; 0, 50 or 200 μM inhibitor; FIG. 2 / FIG. 10
Experimental: as §1, §3, §2, §4

[8] = biological target: T2, UGT2B7; assay: IC50 assays, inhibition of UGT2B7 glucuronidation (Example 1); conditions: read-out: IC50 (Substrate), linoleic acid ~2 x Km, co-substrate in >5 fold excess
Experimental: as §8, §9, §7

[9] = biological target: T4, UGT1A6; conditions: cited from earlier work; for inhibition type toward UDP-GlcUA / inhibition type with 4-MU: 4-MU glucuronidation
[10] = biological target: T2, UGT2B7; assay: Ki assays / kinetics and inhibition type, UGT2B7 (Example 1); conditions: human
Experimental: as §5, §6, §7

[11] = substrate: O=[N+]([O-])c1ccc(O)cc1; assay: purified protein, by the assay type; conditions: other: UGT2B7; Km of the aglycone substrate
Experimental: as §5, §6, §7

[12] = substrate: C[C@]12CC[C@@H](O)C[C@@H]1CC[C@@H]1[C@@H]2CC[C@]2(C)C(=O)CC[C@@H]12; assay: purified protein, by the assay type; conditions: other: UGT2B7; Km of the aglycone substrate
[13] = read-out: Km (Substrate), UGT1A10, Km of the aglycone substrate, Example 2

Molecule: C[C@]12CC[C@@H]3c4ccc(O)cc4CC[C@H]3[C@@H]1CC[C@@H]2O [E2, reference compound]
- Km [1]: 46 ± 5 µM
- Km [2]: 48.3 ± 9 µM

Molecule: CC(=O)CC(c1ccccc1)c1c(O)c2cccc(O)c2oc1=O (stereo not drawn) [8-OH Warfarin, 8-hydroxywarfarin, reference compound]
- Km [1]: 510 ± 70 µM
- Km [2, 13]: 515 ± 17 µM

Molecule: CCCCCCCCCC(=O)NC(COC(=O)NCC(=O)NCC1OC(n2ccc(=O)[nH]c2=O)C(O)C1O)C(O)c1ccccc1 (stereo not drawn) [PP36]
- IC50 [3]: 210 µM
- effect on glucuronidation of linoleic acid by UGT2B7 [4]: least effect
- effect on glucuronidation of 4-MU by UGT1A8 [5]: least effect
- effect on glucuronidation of 4-MU by UGT1A6 [6]: least effect
- effect on glucuronidation of 4-MU by UGT1A10 [7]: least effect
- IC50 [8]: 740 µM

Molecule: CCCCCCCCCC(=O)NC(COC(=O)NS(=O)(=O)OCC1OC(n2ccc(=O)[nH]c2=O)C(O)C1O)C(O)c1ccccc1 (stereo not drawn) [PP37]
- inhibition type toward UDP-GlcUA [9]: competitive
- inhibition type with 4-MU [9]: competitive
- inhibition of 4-methylumbelliferone (4-MU) glucuronidation [9]: identified as inhibitors

Molecule: CCCCCCCCCC(=O)NC(COC(=O)NS(=O)(=O)OCC1OC(n2ccc(=O)[nH]c2=O)C2OC(C)(C)OC12)Cc1ccccc1 (stereo not drawn) [PP50B]
- inhibition type toward UDP-GlcUA [9]: competitive
- inhibition type with 4-MU [9]: non-competitive
- inhibition of 4-methylumbelliferone (4-MU) glucuronidation [9]: identified as inhibitors

Molecule: CC(=O)CC(c1ccccc1)c1c(O)c2ccc(O)cc2oc1=O (stereo not drawn) [7-OH Warfarin, 7-hydroxywarfarin, reference compound]
- Km [1]: 450 ± 40 µM
- Km [2, 13]: 497 ± 61 µM

Molecule: CCCCCCCCCC(=O)NC(COC(=O)NS(=O)(=O)OCC1OC(n2ccc(=O)[nH]c2=O)C2OC(C)(C)OC12)C(O)c1ccccc1 (stereo not drawn) [PP37P]
- effect on glucuronidation of linoleic acid by UGT2B7 [4]: least effect
- effect on glucuronidation of 4-MU by UGT1A8 [5]: least effect
- effect on glucuronidation of 4-MU by UGT1A6 [6]: least effect
- effect on glucuronidation of 4-MU by UGT1A10 [7]: least effect
- inhibition type toward UDP-GlcUA [9]: competitive
- inhibition type with 4-MU [9]: competitive
- inhibition of 4-methylumbelliferone (4-MU) glucuronidation [9]: identified as inhibitors

Molecule: CCCCC/C=C\C/C=C\CCCCCCCC(=O)O [Linoleic Acid, reference compound]
- Km [10]: 160 ± 20 µM

Molecule: CCCCCCCCCC(=O)NC(COC(=O)CS(=O)(=O)OCC1OC(n2ccc(=O)[nH]c2=O)C(O)C1O)Cc1ccccc1 (stereo not drawn) [PP56B]
- inhibition type toward UDP-GlcUA [9]: competitive
- inhibition type with 4-MU [9]: competitive
- inhibition of 4-methylumbelliferone (4-MU) glucuronidation [9]: identified as inhibitors

Molecule: Cc1cc(=O)oc2cc(O)ccc12 [4-MU, 4-methylumbelliferone, reference compound]
- Km [1]: 200 ± 20 µM
- Km [2, 13]: 91.1 ± 19 µM

B1: UGT2B7 (Homo sapiens) (protein)
chain: GKVLVWAAEYSHWMNIKTILDELIQRGHEVTVLASSASILFDPNNSSALKIEIYPTSLTKTELENFIMQQIKRWSDLPKDTFWLYFSQVQEIMSIFGDITRKFCKDVVSNKKFMKKVQESRFDVIFADAIFPCSELLAELFNIPFVYSLSFSPGYTFEKHSGGFIFPPSYVPVVMSELTDQMTFMERVKNMIYVLYFDFWFEIFDMKKWDQFYSEVLGRPTTLSETMGKADVWLIRNSWNFQFPYPLLPNVDFVGGLHCKPAKPLPKEMEDFVQSSGENGVVVFSLGSMVSNMTEERANVIASALAQIPQKVLWRFDGNKPDTLGLNTRLYKWIPQNDLLGHPKTRAFITHGGANGIYEAIYHGIPMVGIPLFADQPDNIAHMKARGAAVRVDFNTMSSTDLLNALKRVINDPSYKENVMKLSRIQHDQPVKPLDRAVFWIEFVMRHKGAKHLRVAAHDLTWFQYHSLDVIGFLLVCVATVIFIVTKCCLFCFWKFARKAKKGKND
- Km [11]: 760 ± 130 µM
- Km [12]: 22 ± 2 µM
